Source: patent US11912693B2, “Compounds for modulating S1P1 activity and methods of using the same” (TREVENA, INC., priority 2017, dated 2024)

Legend:
[1] = molecular target: T1, human sphingosine-1-phosphate receptor 1 (S1P1) (Homo sapiens (Human), UniProt P21453); test: Inhibition of cAMP production (HTRF cAMP HiRange), S1P1 CHO-K1 cells; format: cell-based; settings: for Emax: CHO-K1, read-out: hS1P1 cAMP SPAN; for hS1P1 cAMP pEC50 / EC50: inhibition of cAMP production, S1P1 CHO-K1 cells; for EC50: read-out: hS1P1 cAMP pEC50 (converted)
Procedure, shortened: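 CHO-K1 cells stably co-expressing human S1P1 (C-terminal Prolink tag) and EA-β-arrestin2 were grown in AssayComplete Media 6 at 37° C. and 5% CO2, plated, and incubated overnight. Agonist-driven inhibition of intracellular cAMP was read by TR-FRET with the HTRF cAMP HiRange kit on a PheraStar reader. Potency is pEC50, and efficacy (SPAN) is normalized to fingolimod.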
Target sequence in this assay (P21453 whole entry, looked up): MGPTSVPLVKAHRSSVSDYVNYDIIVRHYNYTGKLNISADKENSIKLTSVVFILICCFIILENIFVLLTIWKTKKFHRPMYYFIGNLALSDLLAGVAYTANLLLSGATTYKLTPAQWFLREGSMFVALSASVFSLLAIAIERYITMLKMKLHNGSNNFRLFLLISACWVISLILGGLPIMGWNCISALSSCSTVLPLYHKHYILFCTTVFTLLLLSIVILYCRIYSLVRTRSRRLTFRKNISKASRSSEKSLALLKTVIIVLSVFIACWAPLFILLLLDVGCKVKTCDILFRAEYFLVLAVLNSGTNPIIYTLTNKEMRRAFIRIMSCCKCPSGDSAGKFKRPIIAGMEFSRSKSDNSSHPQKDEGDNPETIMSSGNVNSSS

[2] = molecular target: T1, human sphingosine-1-phosphate receptor 1 (S1P1); test: β-Arrestin2 recruitment assay (PathHunter), S1P1 CHO-K1 cells; format: cell-based; settings: for Emax: CHO-K1, read-out: hS1P1 B-arrestin2 SPAN; for hS1P1 B-arrestin2 pEC50 / EC50: β-arrestin2 recruitment, S1P1 CHO-K1 cells; for EC50: read-out: hS1P1 B-arrestin2 pEC50 (converted)
Procedure, shortened: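 Enzyme-fragment complementation read-out: agonist-driven β-arrestin2 binding to ProLink-tagged human S1P1 in stable CHO-K1 cells restores β-galactosidase, measured 1 h at room temperature after a 60 min 37° C. compound incubation. Potency as pEC50, efficacy relative to fingolimod (SPAN).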
Target sequence in this assay (P21453 whole entry, looked up): as above
Target sequence in this assay (P32121 whole entry partner, looked up): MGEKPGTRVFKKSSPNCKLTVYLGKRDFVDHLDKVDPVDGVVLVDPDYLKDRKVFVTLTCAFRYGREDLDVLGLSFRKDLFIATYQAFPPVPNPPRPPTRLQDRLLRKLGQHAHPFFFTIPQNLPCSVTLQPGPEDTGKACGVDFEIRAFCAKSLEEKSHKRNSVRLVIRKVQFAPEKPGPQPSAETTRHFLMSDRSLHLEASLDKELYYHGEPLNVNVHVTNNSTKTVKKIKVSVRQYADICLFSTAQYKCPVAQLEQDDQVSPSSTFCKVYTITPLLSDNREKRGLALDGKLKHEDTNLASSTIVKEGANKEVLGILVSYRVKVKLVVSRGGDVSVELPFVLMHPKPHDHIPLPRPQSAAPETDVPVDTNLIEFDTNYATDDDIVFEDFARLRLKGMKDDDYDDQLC

[3] = efficacy (SPAN) normalized to fingolimod

Row | Emax [1, 3] [%] | hS1P1 cAMP pEC50 [1] | Emax [2, 3] [%] | hS1P1 B-arrestin2 pEC50 [2] | EC50 [1] [µM] | EC50 [2] [µM] | hS1P1 cAMP SPAN [1, 3] | hS1P1 B-arrestin2 SPAN [2, 3] | Structure (SMILES)
1 | < 75 | <6.5 | < 75 | <5 |  |  |  |  | Cc1nccnc1-c1nc(-c2ccc3c(c2)nnn3C(C)(C)CO)no1 [Compound 641, 2-methyl-2-(5-(5-(3-methylpyrazin-2-yl)-1,2,4-oxadiazol-3-yl)-1H-benzo[d][1,2,3]triazol-1-yl)propan-1-ol]
2 |  | >6.5 |  | >5 |  |  |  |  | N#Cc1cc(-c2nnc(-c3ccc4[nH]c(=O)oc4c3)o2)ccc1NCC(F)F [Compound 488, 2-[(2,2-difluoroethyl)amino]-5-[5-(2-oxo-2,3-dihydro-1,3-benzoxazol-6-yl)-1,3,4-oxadiazol-2-yl]benzonitrile]
3 | > 75 | >6.5 | < 75 | >5 |  |  |  |  | COc1cc(NC(C)=O)ccc1-c1noc(-c2ccc3c(c2)nnn3C(C)C)n1 [Compound 532, N-(3-methoxy-4-{5-[1-(propan-2-yl)-1H-1,2,3-benzotriazol-5-yl]-1,2,4-oxadiazol-3-yl}phenyl)acetamide]
4 |  | >6.5 |  | >5 |  |  |  |  | CC(C)Cn1nnc2cc(-c3nc4c(Cl)cccc4o3)ccc21 [Compound 453, 4-chloro-2-(1-isobutyl-1H-benzo[d][1,2,3]triazol-5-yl)benzo[d]oxazole]
5 | < 75 | <6.5 | < 75 | <5 |  |  |  |  | CCC1(CC)CC(=O)c2cc(-c3nc(-c4ccc(OC)cc4)no3)ccc2O1 [Compound 65, 2,2-diethyl-6-(3-(4-methoxyphenyl)-1,2,4-oxadiazol-5-yl)chroman-4-one]
6 |  | >6.5 |  | >5 |  |  |  |  | CCC1(CC)CC(=O)c2cc(-c3nc(-c4cnccc4C)no3)ccc2O1 [Compound 549, 2,2-diethyl-6-(3-(4-methylpyridin-3-yl)-1,2,4-oxadiazol-5-yl)chroman-4-one]
7 | < 75 | <6.5 | < 75 | <5 |  |  |  |  | COc1ccc(-c2noc(-c3ccc4c(c3)nnn4C(C)C)n2)cc1OC [Compound 230, 3-(3,4-dimethoxyphenyl)-5-(1-isopropyl-1H-benzo[d][1,2,3]triazol-5-yl)-1,2,4-oxadiazole]
8 | < 75 | <6.5 | < 75 | <5 |  |  |  |  | COc1cncc(-c2nc(-c3ccc4c(c3)nnn4C(C)C)no2)c1 [Compound 272, 3-(1-isopropyl-1H-benzo[d][1,2,3]triazol-5-yl)-5-(5-methoxypyridin-3-yl)-1,2,4-oxadiazole]
9 | > 75 | <6.5 | < 75 | <5 |  |  |  |  | Cc1ccncc1-c1noc(-c2ccc3c(c2)nnn3CC(C)(C)O)n1 [Compound 206, 2-methyl-1-{5-[3-(4-methylpyridin-3-yl)-1,2,4-oxadiazol-5-yl]-1H-1,2,3-benzotriazol-1-yl}propan-2-ol]
10 |  | <6.5 |  | <5 |  |  |  |  | C=CCn1nnc2cc(-c3noc(-c4ccccc4Br)n3)ccc21 [Compound 42, 3-(1-allyl-1H-benzo[d][1,2,3]triazol-5-yl)-5-(2-bromophenyl)-1,2,4-oxadiazole]
11 | < 75 | <6.5 | < 75 | <5 |  |  |  |  | CSc1ccc(-c2nc(-c3ccc4c(c3)nnn4C3CCCC3)no2)cc1 [Compound 237, 3-(1-cyclopentyl-1H-benzo[d][1,2,3]triazol-5-yl)-5-(4-(methylthio)phenyl)-1,2,4-oxadiazole]
12 | < 75 | <6.5 | < 75 | <5 |  |  |  |  | Clc1ncccc1-c1noc(-c2ccc3c(c2)nnn3CC2CC2)n1 [Compound 199, 5-[3-(2-chloropyridin-3-yl)-1,2,4-oxadiazol-5-yl]-1-(cyclopropylmethyl)-1H-1,2,3-benzotriazole]
13 |  | <6.5 |  | <5 |  |  |  |  | CC(C)n1ccc2nc(-c3nc(-c4ccccc4Br)cs3)ccc21 [Compound 412, 4-(2-bromophenyl)-2-(1-isopropyl-1H-pyrrolo[3,2-b]pyridin-5-yl)thiazole]
14 | > 75 |  | < 75 |  | > 0.316 | > 10 |  |  | COC(=O)Cn1nnc2cc(-c3noc(-c4ccccc4Br)n3)ccc21 [Compound 81, methyl 2-(5-(5-(2-bromophenyl)-1,2,4-oxadiazol-3-yl)-1H-benzo[d][1,2,3]triazol-1-yl)acetate]
15 |  | <6.5 |  | <5 |  |  |  |  | COc1ccccc1-c1nsc(-c2ccc3c(c2)nnn3C(C)C)n1 [Compound 213, 5-[3-(2-methoxyphenyl)-1,2,4-thiadiazol-5-yl]-1-(propan-2-yl)-1H-1,2,3-benzotriazole]
16 | > 75 | >6.5 | > 75 | >5 |  |  |  |  | CC(F)(F)CNc1ccc(-c2nc(-c3ccc4c(c3)CCC(=O)N4)no2)cc1C#N [Compound 347, 2-[(2,2-difluoropropyl)amino]-5-[3-(2-oxo-1,2,3,4-tetrahydroquinolin-6-yl)-1,2,4-oxadiazol-5-yl]benzonitrile]
17 | < 75 | >6.5 | < 75 | >5 |  |  |  |  | CC(C)Oc1ccc(-c2nc(-c3ccc4c(c3)nnn4C3CCCC3)no2)cc1C(F)(F)F [Compound 14, 3-(1-cyclopentyl-1H-benzo[d][1,2,3]triazol-5-yl)-5-(4-isopropoxy-3-(trifluoromethyl)phenyl)-1,2,4-oxadiazole]
18 |  | <6.5 |  | <5 |  |  |  |  | O=C1CC(CO)(CO)Oc2ccc(-c3nc(-c4cccnc4)no3)cc21 [Compound 478, 2,2-bis(hydroxymethyl)-6-[3-(pyridin-3-yl)-1,2,4-oxadiazol-5-yl]-3,4-dihydro-2H-1-benzopyran-4-one]
19 |  | <6.5 |  | <5 |  |  |  |  | COc1ccccc1-c1nc(-c2ccc3c(c2)nnn3CC(C)(C)CO)no1 [Compound 525, 3-(5-(5-(2-methoxyphenyl)-1,2,4-oxadiazol-3-yl)-1H-benzo[d][1,2,3]triazol-1-yl)-2,2-dimethylpropan-1-ol]
20 |  | <6.5 |  | <5 |  |  |  |  | O=C1CC2(CCOCC2)Oc2ccc(-c3nc(-c4ccncc4)no3)cc21 [Compound 148, 6-[3-(pyridin-4-yl)-1,2,4-oxadiazol-5-yl]-3,4-dihydrospiro[1-benzopyran-2,4′-oxane]-4-one]
21 |  | <6.5 |  | <5 |  |  |  |  | CCC1(CC)CC(=O)c2cc(-c3ncc(-c4ccccn4)cn3)ccc2O1 [Compound 530, 2,2-diethyl-6-(5-(pyridin-2-yl)pyrimidin-2-yl)chroman-4-one]
22 |  | <6.5 |  | <5 |  |  |  |  | COc1ccccc1-c1noc(-c2ccc3[nH]ccc3c2)n1 [Compound 368, 5-(1H-indol-5-yl)-3-(2-methoxyphenyl)-1,2,4-oxadiazole]
23 |  | >6.5 |  | <5 |  |  |  |  | CC(C)n1nnc2cc(-c3noc(-c4cccc(F)c4)n3)ccc21 [Compound 64, 5-(3-fluorophenyl)-3-(1-isopropylbenzotriazol-5-yl)-1,2,4-oxadiazole]
24 |  | <6.5 |  | <5 |  |  | >75 | >75 | CCC1(CC)CC(=O)c2cc(-c3nc(-c4ccc(C(=O)N(C)C)cc4)no3)ccc2O1 [Compound 151, 4-(5-(2,2-diethyl-4-oxochroman-6-yl)-1,2,4-oxadiazol-3-yl)-N,N-dimethylbenzamide]
25 | > 75 | >6.5 | < 75 | >5 |  |  |  |  | CCC1(CC)CC(=O)c2cc(-c3nc(-c4ccnc(C)c4)no3)ccc2O1 [Compound 315, 2,2-diethyl-6-(3-(2-methylpyridin-4-yl)-1,2,4-oxadiazol-5-yl)chroman-4-one]
26 | > 75 | >6.5 | > 75 | >5 |  |  |  |  | C=CCNc1ccc(-c2nc(-c3ccc4c(c3)nnn4C(C)C)no2)cc1C#N [Compound 150, 2-(allylamino)-5-(3-(1-isopropyl-1H-benzo[d][1,2,3]triazol-5-yl)-1,2,4-oxadiazol-5-yl)benzonitrile]
27 | < 75 | >6.5 | < 75 | >5 |  |  |  |  | CC(C)n1nnc2cc(-c3nnc(-c4ccccc4O)s3)ccc21 [Compound 70, 2-{5-[1-(propan-2-yl)-1H-1,2,3-benzotriazol-5-yl]-1,3,4-thiadiazol-2-yl}phenol]
28 |  | <6.5 |  | <5 |  |  |  |  | CCC1(CC)CC(=O)c2cc(-c3nc(-c4ccccc4OC)ns3)ccc2O1 [Compound 257, 2,2-diethyl-6-(3-(2-methoxyphenyl)-1,2,4-thiadiazol-5-yl)chroman-4-one]
29 | < 75 |  | < 75 |  | > 0.316 | > 10 |  |  | c1ccc(Cc2noc(-c3ccc4c(c3)nnn4C3CCCC3)n2)cc1 [Compound 92, 5-(3-benzyl-1,2,4-oxadiazol-5-yl)-1-cyclopentyl-1H-1,2,3-benzotriazole]
